Measurements: patent US12172975B2, “1H-indazole carboxamides as receptor-interacting protein kinase 1 inhibitors (RIPK1)” (BRISTOL-MYERS SQUIBB COMPANY, priority 2018, dated 2024)
Counter-ions that a name gives are not always drawn.

These compounds were tested on MLKL phosphorylation in HT29-L23 human colorectal adenocarcinoma cells (assay: MLKL Phosphorylation High-Content Assay). Conditions: Homo sapiens, 6 h, necroptosis induced with TNFα, SMAC mimetic and Z-VAD, read-out: pMLKL (IC50).
Format: cell-based
Method: MLKL Phosphorylation High-Content Assay
HT29-L23 human colorectal adenocarcinoma cells were maintained in RPMI 1640 medium containing 10% heat-inactivated FBS, 1% Penicillin-Streptomycin and 10 mM HEPES. Cells were seeded at 2,000 cells/well in 384 well tissue culture-treated microplates (Greiner #781090-3B) and incubated at 37° C. (5% CO2/95% O2) for 2 d. […] (5% CO2/95% O2). Necroptopsis was induced using a mixture of human TNFα (35 ng/mL) (Peprotech #300-01A), SMAC mimetic (from US 2015/0322111 A1) (700 nM) and Z-VAD ([…]) (BD pharmingen #51-6936). Following 6 h incubation at 37° C. (5% CO2/95% O2), the cells were fixed with 4% formaldehyde (ACROS 11969-0010) for 15 min at rt, then permeabilized with phosphate buffered saline (PBS) containing 0.2% Triton-X-100 for 10 min. MLKL phosphorylation was detected using anti-MLKL (phospho S358) antibody (Abeam #ab 187091) (1:1000 dilution in Blocking Buffer [PBS supplemented with 0.1% BSA]) with ON incubation at 4° C. After washing three times in PBS, goat anti-rabbit Alexa-488 (1:1000 dilution) (Life Technologies, A11008) and Hoechst 33342 (Life Technologies, H3570) (1:2000 dilution) in Blocking Buffer were added for 1 h at rt.
Following another three cycles of washes in PBS, the microplates were sealed, and cellular images were acquired in the Cellomics ArrayScan VTI high-content imager equipped with an X1 camera. Fluorescent images were taken using a 10× objective and the 386-23 BGRFRN_BGRFRN and 485-20 BGRFRN_BGRFRN filter sets, for nuclei and MLKL phosphorylation, respectively. The image sets were analyzed using the Compartmental Analysis Bioapplication software (Cellomics). The level of MLKL phosphorylation was quantified as MEAN_CircRingAvglntenRatio. The maximal inhibitory response was defined by the activity induced by Neels (CAS #: 852391-15-2, 6.25 μM). […] The data were fitted using the 4-parameter logistic equation to calculate the IC50 and Ymax values.
With `[2H]C([2H])([2H])Oc1ncc(-c2ccc3c(C(=O)NC)n[nH]c3c2)cc1C(=O)NC(C)c1ccccc1OC(F)(F)F` (single isomer, unassigned) [Example 15, 6-(6-methoxyd3-5-((1-(2-(trifluoromethoxy)phenyl)ethyl)carbamoyl)pyridin-3-yl)-N-methyl-1H-indazole-3-carboxamide] the IC50 was 3.4 nM.
Compound `[2H]C([2H])([2H])Oc1ncc(-c2ccc3c(C(=O)NC)n[nH]c3c2)cc1C(=O)N[C@@H](c1cc(C(F)(F)F)ccc1F)C([2H])([2H])[2H]` [Example 4, (R)-6-(5-((1-(2-fluoro-5-(trifluoromethyl)phenyl)ethyl-2,2,2-d3)carbamoyl)-6-(methoxy-d3)pyridin-3-yl)-N-methyl-1H-indazole-3-carboxamide, TFA] has an IC50 of 19 nM.
In the case of `[2H]C([2H])([2H])NC(=O)c1n[nH]c2cc(-c3cnc(OC([2H])([2H])[2H])c(C(=O)N[C@@H](C)c4cc(OC(F)(F)F)ccc4F)c3)ccc12` [Example 5, (S)-6-(5-((1-(2-fluoro-5-(trifluoromethoxy)phenyl)ethyl)carbamoyl)-6-(methoxy-d3)pyridin-3-yl)-N-(methyl-d3)-1H-indazole-3-carboxamide], the IC50 is reported as 9 nM.
In the case of `[2H]C([2H])([2H])Oc1ncc(-c2ccc3c(C(=O)NC)n[nH]c3c2)cc1C(=O)N[C@@H](c1cc(OC(F)(F)F)ccc1F)C([2H])([2H])[2H]` [Example 9, (R)-6-(5-((1-(2-fluoro-5-(trifluoromethoxy)phenyl)ethyl-2,2,2-d3)carbamoyl)-6-(methoxy-d3)pyridin-3-yl)-N-methyl-1H-indazole-3-carboxamide, TFA], the IC50 is reported as 22 nM.
For `[2H]C([2H])([2H])Oc1ncc(-c2ccc3c(C(=O)NC)n[nH]c3c2)cc1C(=O)N[C@H](c1cc(OC(F)(F)F)ccc1F)C([2H])([2H])[2H]` [Example 10, (S)-6-(5-((1-(2-fluoro-5-(trifluoromethoxy)phenyl)ethyl-2,2,2-d3)carbamoyl)-6-(methoxy-d3)pyridin-3-yl)-N-methyl-1H-indazole-3-carboxamide], the IC50 was 6.4 nM.
For `[2H]C([2H])([2H])Oc1ncc(-c2ccc3c(C(=O)NC)n[nH]c3c2)cc1C(=O)N[C@@H](c1cccc(OC(F)(F)F)c1)C([2H])([2H])[2H]` [Example 11, (R)-6-(6-(methoxy-d3)-5-((1-(3-(trifluoromethoxy)phenyl)ethyl-2,2,2-d3)carbamoyl)pyridin-3-yl)-N-methyl-1H-indazole-3-carboxamide, TFA], the IC50 was 223 nM.
In the case of `[2H]C([2H])([2H])Oc1ncc(-c2ccc3c(C(=O)NC)n[nH]c3c2)cc1C(=O)N[C@H](C)c1cccc(OC(F)(F)F)c1` [Example 14, (R)-6-(6-methoxyd3-5-((1-(3-(trifluoromethoxy)phenyl)ethyl)carbamoyl)pyridin-3-yl)-N-methyl-1H-indazole-3-carboxamide], the IC50 is reported as 37 nM.
`[2H]C([2H])([2H])Oc1ncc(-c2ccc3c(C(=O)NC)n[nH]c3c2)cc1C(=O)N[C@@H](C)c1cccc(OC(F)(F)F)c1` [Example 25] showed an IC50 of 190 nM.
`[2H]C([2H])([2H])Oc1ncc(-c2ccc3c(C(=O)NC)n[nH]c3c2)cc1C(=O)N[C@H](C)CC(=O)OC(C)(C)C` [Example 29, tert-butyl (3R)-3-{[2-(deutero)-methoxy-5-[3-(methylcarbam-oyl)-1H-indazol-6-yl]pyridin-3-yl]formamido}butanoate] showed an IC50 of 76 nM.
In the case of `[2H]C([2H])([2H])Oc1ncc(-c2ccc3c(C(=O)NC)n[nH]c3c2)cc1C(=O)N[C@H](C)c1cc(OC(F)(F)F)ccc1F` [Example 30, 6-(5-{[(1R)-1-[2-fluoro-5-(tri-fluoromethoxy)phenyl]ethyl]-carbamoyl}-6-(deutero)methoxy-pyridin-3-yl)-N-methyl-1H-indazole-3-carboxamide], the IC50 is reported as 48 nM.
Work on `[2H]C([2H])([2H])Oc1ncc(-c2ccc3c(C(=O)NC)n[nH]c3c2)cc1C(=O)N[C@@H](C)c1cc(C(F)(F)F)ccc1F` [Example 32, 6-(5-{[(1S)-1-[2-fluoro-5-(trifluoromethyl)phenyl]ethyl]-carbamoyl}-6-(deutero)meth-oxypyridin-3-yl)-N-methyl-1H-indazole-3-carboxamide] yielded an IC50 of 19 nM.
With `[2H]C([2H])([2H])Oc1ncc(-c2ccc3c(C(=O)NC)n[nH]c3c2)cc1C(=O)N[C@H](C)c1ccccc1C(F)(F)F` [Example 33, 6-[6-(deutero)methoxy-5-{[(1R)-1-[2-(trifluoromethyl)phenyl]-ethyl]carbamoyl}pyridin-3-yl]-N-methyl-1H-indazole-3-carbox-amide] the IC50 was 25 nM.
Work on `CNC(=O)c1n[nH]c2cc(-c3cnc(OC)c(C(=O)NCCC(O)c4ccc(OC)cc4)c3)ccc12` (stereo not drawn) [Example 38, 6-(5-{[3-hydroxy-3-(4-methoxy-phenyl)propyl]carbamoyl}-6-methoxypyridin-3-yl)-N-methyl-1H-indazole-3-carboxamide] yielded an IC50 of 13 nM.
For `CNC(=O)c1n[nH]c2cc(-c3cnc(OC)c(C(=O)NCCC(O)c4ccc(F)c(F)c4)c3)ccc12` (stereo not drawn) [Example 39, 6-(5-{[3-(3,4-difluorophenyl)-3-hydroxypropyl]carbamoyl}-6-methoxypyridin-3-yl)-N-methyl-1H-indazole-3-carboxamide], the IC50 was 8 nM.
`CNC(=O)c1n[nH]c2cc(-c3cnc(OC)c(C(=O)NCCC(O)c4ccc(F)cc4)c3)ccc12` (stereo not drawn) [Example 40, 6-(5-{[3-(4-fluorophenyl)-3-hydroxypropyl]carbamoyl}-6-methoxypyridin-3-yl)-N-methyl-1H-indazole-3-carboxamide] gave an IC50 of 5.7 nM.
Work on `CNC(=O)c1n[nH]c2cc(-c3cnc(OC)c(C(=O)NCCC(C)c4ccc(F)cc4)c3)ccc12` (stereo not drawn) [Example 41, 6-(5-{[3-(4-fluorophenyl)-butyl]carbamoyl}-6-methoxy-pyridin-3-yl)-N-methyl-1H-indazole-3-carboxamide] yielded an IC50 of 0.6 nM.
With `CNC(=O)c1n[nH]c2cc(-c3cnc(OC)c(C(=O)NCC4CC4c4cccc(F)c4)c3)ccc12` (stereo not drawn) [Example 42, 6-[5-({[2-(3-fluorophenyl)cyclo-propyl]methyl}carbamoyl)-6-methoxypyridin-3-yl]-N-methyl-1H-indazole-3-carboxamide] the IC50 was 88 nM.
With `CNC(=O)c1n[nH]c2cc(-c3cnc(OC)c(C(=O)N[C@@H]4C[C@H]4c4ccccc4)c3)ccc12` [Example 45, 6-(6-methoxy-5-{[(1R,2S)-2-phenylcyclopropyl]carbamoyl}-pyridin-3-yl)-N-methyl-1H-indazole-3-carboxamide] the IC50 was 5 nM.
Work on `CNC(=O)c1n[nH]c2cc(-c3cnc(OC)c(C(=O)N[C@H]4C[C@@H]4c4ccccc4)c3)ccc12` [Example 46, 6-(6-methoxy-5-{[(1S,2R)-2-phenylcyclopropyl]carbamoyl}-pyridin-3-yl)-N-methyl-1H-indazole-3-carboxamide] yielded an IC50 of 4.4 nM.
Compound `CNC(=O)c1n[nH]c2cc(-c3cnc(OC)c(C(=O)NCCS(=O)(=O)Nc4ccccc4)c3)ccc12` [Example 47, 6-(6-methoxy-5-{[2-(phenyl-sulfamoyl)ethyl]carbamoyl}-pyridin-3-yl)-N-methyl-1H-indazole-3-carboxamide] has an IC50 of 38 nM.

Same assay, conditions: necroptosis induced with TNFα, SMAC mimetic and Z-VAD, 6 h, read-out: pMLKL (IC50)
`CNC(=O)c1n[nH]c2cc(-c3cnc(OC)c(C(=O)NC[C@H]4C[C@@H]4c4ccc(F)cc4)c3)ccc12` [Example 43, 6-[5-({[(1S,2S)-2-(4-fluoro-phenyl)cyclopropyl]methyl}-carbamoyl)-6-methoxypyridin-3-yl]-N-methyl-1H-indazole-3-carboxamide] was tested, and the IC50 was 99 nM.
